Data on 1 compound can be found in patent publication US11911396B2, “Use of compound in preparation of drug for treating cerebral small vessel disease” (GUANGZHOU CELLPROTEK PHARMACEUTICAL CO., LTD, priority 2017, dated 2024).

Test [1] has as its system Heme Oxygenase-1 (HO-1). Briefly: Western blot of HO-1 in prefrontal cortex brain tissue, acute hypobaric hypoxia model. The format is in vivo, cynomolgus monkeys. Particulars: after hypobaric hypoxia, FIG. 4. From the text:
FIG. 4. Triol enhanced the clearance of free hemoglobin in brain tissue by up-regulating CD163 and Heme Oxygenase-1 (HO-1) protein levels. A. Protein expression of hemoglobin scavenger receptor CD163 and heme oxygenase HO-1 in the brain tissue of the prefrontal cortex of cynomolgus monkeys; B. Statistics of protein relative gray scan values. The gray value was obtained by scanning with Image Lab software, and the relative value was obtained after normalizing with α-Tubulin. NN: Normobaric Normoxia group (N=3); HH: Hypobaric Hypoxia group (N=3); HH+Triol: Hypobaric Hypoxia with Triol administration group (N=3); HH+PROG: Hypobaric Hypoxia with progesterone administration group (N=3). […]
(§1) 1) Preparation of protein samples (see the instructions of M-PER protein lysate): After the cells had been processed for the specified time, the medium was aspirated and then washed with 4° C. pre-chilled PBS (0.01M pH7.2˜7.3) for 3 times. […] 2) BCA protein quantification (see the instructions of BCA protein quantification kit): corresponding components were added to a 96-well detection plate by the ratio of quantification reagent A solution:B solution:ddH2O:protein=100:2:7.5:5, and albumin standards diluted in gradient concentration were added to draw a standard curve. […] After the reaction, the absorbance of each well at a wavelength of 562 nm was detected using a microplate reader. […]
Background: Immunoblotting shows a protein as a band on a membrane.

Test [2] relates to CD11b in microglia BV2. Briefly: Western blot of CD11b in BV2 cells stimulated with hemoglobin and hypoxia, with or without CD163 RNA interference. It is filed as cell-based. As to conditions: 10 μM Triol, 20 μM hemoglobin and 1% hypoxia for 6 hours. The protocol:
FIG. 7. […] According to the manufacturer's instructions, RNAiMAX was used to transfect CD163 No. 01 and scrambled interference fragment NC respectively to BV2 cells, BV2 cell culture medium was then added with or without 10 μM Triol, and BV2 cells were stimulated with 20 μM hemoglobin and 1% hypoxia for 6 hours, after which protein samples were collected, and the expression of microglial activation markers Iba-1 and CD11b was detected by Western blot.
as §1, with “times. 150-200 ul of M-PER protein lysate mixed with protease inhibitor (PMSF 100×) was added, which was lysed on ice for 10 minutes to fully lyse the cells.” for “times.”

Turning to `C[C@@]12CCCC1C1C[C@@H](O)[C@@]3(O)C[C@@H](O)CC[C@]3(C)C1CC2` (stereo partly drawn) [Triol, 5α-androst-3β,5,6β-triol], the “expression of HO-1” value in test [1] is reported as “further up-regulated”. The “effect on the up-regulation of CD11b in hypoxia and hemoglobin-activated microglia cells” value in test [2] (without CD163 interference) is on record as “inhibitory effect”. In addition, the “inhibitory effect on the up-regulation of CD11b after interfering CD163” value in test [2] (CD163 RNA interference, FIG. 7) is recorded as “cancelled”.
